# Measured values from article PMC12375981 (Protein Science : A Publication of the Protein Society, 2025).
# What was measured:
# [1] = molecular target: A191E 3CL^pro (Severe acute respiratory syndrome coronavirus 2, UniProt P0DTD1, A3454E); assay type: biochemical, SARS‐CoV‐2
# [2] = molecular target: DM (S1D + A191E) 3CL^pro (Severe acute respiratory syndrome coronavirus 2, UniProt P0DTD1, A3454E/S3264D); assay type: binding, SARS‐CoV‐2
# [3] = molecular target: S1D + A191E 3CL^pro (double mutant, DM) (Severe acute respiratory syndrome coronavirus 2, UniProt P0DTD1, A3454E/S3264D); assay type: biochemical, SARS‐CoV‐2
# [4] = molecular target: T1, S1D 3CL^pro (Severe acute respiratory syndrome coronavirus 2, UniProt P0DTD1, S3264D); assay type: biochemical, SARS‐CoV‐2
# [5] = molecular target: T1, S1D 3CL^pro; assay type: binding, SARS‐CoV‐2
# [6] = system: E166V mutation of 3CL^pro; details: cited from earlier work
# [7] = system: E166V 3CL^pro; details: cited from earlier work
SMILES,reduction in affinity (K i) compared to the WT [1],effect of inhibitor on monomer/dimer peaks [2],K D [3],K D f c [3],K D/f c [3],f c [3],inhibitor concentration at which the mutant is more active than the WT [3],reduction in affinity for the dimer (K i) compared to the WT [3],K D [4],K D f c [4],K D/f c [4],f c [4],inhibitor concentration at which the mutant is more active than the WT [4],inhibitor concentration for full inhibition [4],reduction in affinity (K i) compared to the WT [4],effect of inhibitor on monomer/dimer peaks [5],increase in EC50 [6],increase in K i [7]
COc1cccc2[nH]c(C(=O)N[C@@H](CC(C)C)C(=O)N[C@@H](C[C@@H]3CCNC3=O)C(=O)COP(=O)(O)O)cc12 [lufotrelvir],6.4 fold,eliminated the monomeric peaks,0.14 ± 0.01 µM,2.3 ± 0.3 µM,0.009 ± 0.001 µM,16 ± 1,≥ 10 nM,26 fold,0.29 ± 0.03 µM,6 ± 0.7 µM,0.013 ± 0.002 µM,21 ± 1,greater than 10 nM,exceeded 1 μM,3.3 fold,eliminated the monomeric peaks,–,–
CC(C)(C)[C@H](NC(=O)C(F)(F)F)C(=O)N1C[C@H]2[C@@H]([C@H]1C(=O)N[C@H](C#N)C[C@@H]1CCNC1=O)C2(C)C [nirmatrelvir],–,–,–,–,–,–,–,–,–,–,–,–,–,–,–,–,up to 255 fold,more than 7000 fold
